From publication PMC11011327 (International Journal of Molecular Sciences, 2024)
Read-outs that look alike come from different tables or passages of the source. Residues, ends and D or L forms follow the SMILES beside them. No end group written: not given here.

How the values were obtained:
[1] = test system: Tag7–Hsp70-induced cytotoxicity, L929 cells; assay: Inhibition of cytotoxic activity of Tag7–Hsp70 complex on L929 cells; type: cell-based; details: Tag7–Hsp70 1 nM, peptide 10 nM, n = 5, complex preincubated with TNFR1 peptide / cells preincubated with TNFL; for apoptotic cytotoxic activity of Tag7–Hsp70 complex in the presence of peptide: 3 h; for necroptotic cytotoxic activity of Tag7–Hsp70 complex in the presence of peptide: 20 h
Method: (§1) Next, we investigated how this interaction affects the cytotoxic activity of TNFR1 ligands. […] Cell apoptosis is a fast process of several hours. During necroptosis, cell death processes take place after a few dozen hours. Taking into account this ability of TNFR1 to participate in the induction of alternative cytotoxic pathways that develop at different time intervals, cytotoxic activity was determined after 3 h and after 20 h (Figure 4). […] It can be assumed that the inhibition of the cytotoxic effect of the ligands is associated with the competition of a 12-membered peptide with the cell surface receptor on for binding to the ligands.

Tag7 = target: T1, Tag7 (Homo sapiens, UniProt O75594); assay: Microscale thermophoresis, binding to fluorescent-labeled Tag7; details: ratio to previously shown Kd of Tag7–sTNFR1 (42.2)
T1 construct: His tag (inferred from the pQE-31 vector only); made in house; host or cells: E. coli M15 (pREP4)
T1 sequence (O75594 22-196): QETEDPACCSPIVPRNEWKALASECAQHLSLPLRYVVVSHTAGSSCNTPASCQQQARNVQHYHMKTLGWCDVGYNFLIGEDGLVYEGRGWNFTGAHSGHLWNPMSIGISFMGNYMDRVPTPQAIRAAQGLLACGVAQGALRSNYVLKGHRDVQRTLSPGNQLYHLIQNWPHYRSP
Excerpt: The calculated Kd indicates a high affinity among the studied complexes (Table 1).
Graphs are represented as Fnorm [‰] against ligand concentration. Data represent three independent experiments and were fitted to a Kd binding model assuming a 1:1 binding stoichiometry.
Hsp70 and TNF-α were purified with Ni-NTA Agarose (Thermo Fisher Scientific, Waltham, MA, USA) in accordance with the manufacturer’s instructions.
The samples were transferred to glass capillaries (Monolith NT Capillaries) and analyzed by microscale thermophoresis on a Nano-Temperature Monolith NT 115 device (30% IR laser power). The signal quality was monitored using a NanoTemper Monolith device to detect possible autofluorescence of the ligand, aggregation or changes in the rate of photobleaching. The experiments were carried out in at least three repetitions and processed using affinity analysis software (MO Control v.1.6.1, NanoTemper Technologies GmbH, München, Germany).

[2] = test system: TNF-induced cytotoxicity, L929 cells; assay: Inhibition of cytotoxic activity of TNF on L929 cells; type: cell-based; details: TNF 1 nM, peptide 10 nM, n = 5, TNF preincubated with TNFR1 peptide / cells preincubated with TNFL; for apoptotic cytotoxic activity of TNF in the presence of peptide: 3 h; for necroptotic cytotoxic activity of TNF in the presence of peptide: 20 h
Method: as §1

L929 cells [3] = test system: L929 cells
Method: (§2) The TNFR1 antibodies were added to the sum of TNFL and TNFS peptides prior to incubation (a). Cytotoxic activity of the sum of TNFL and TNFS peptides on L929 cells after 3 (b) and 20 (c) hours in the presence of caspase 3 and 8 inhibitors (5 μM) and necrostatin1 (5 μM) is shown. (d) Cytotoxic activity of the sum of TNFL and TNFs peptides on L929 cells after 20 h of incubation in the presence of calpains inhibitors (10 μM), cathepsins inhibitors (10 μM) and antioxidant (1 μM). n = 5 for each point, (* p-value < 0.05).
(§3) L929 cells were cultured in DMEM with 2 mm L-glutamine and 10% FCS (Invitrogen, Carlsbad, CA, USA). This cell line was obtained from the cell line collection of the N. N. Blokhin National Medical Research Center of Oncology of the Ministry of Health of Russia.
(§4) For cytotoxicity tests, target cells were cultured in 96-well plates (3 × 10^4 cells per well), and cytotoxic complexes were added (1 nM). Cytotoxicity was measured after 20 h of incubation by Cytotox 96 analysis kit (Promega, Madison, WI, USA) in accordance with the manufacturer’s protocol. […]

[4] = test system: tumor cells / cancer cells; details: ref [33]; cited from earlier work
Excerpt: The amino acid sequence of Tag7 seemingly lacks a peptide fragment interacting with the second site of the receptor.

tumor = details: ref [33]; cited from earlier work
Excerpt: Modifications of the TNF molecule are used to solve it.

sTNFR1 = details: read-out: Kd value for the Tag7–sTNFR1 complex; "Previously, we showed"; cited from earlier work
L929 cells [5] = assay: Cytotoxic activity of TNF peptides on L929 cells; details: 20 h, n = 5, Cytotox 96 kit
Method: as §2, §3, §4

| Compound | apoptotic cytotoxic activity of Tag7–Hsp70 complex in the presence of peptide [1] | necroptotic cytotoxic activity of Tag7–Hsp70 complex in the presence of peptide [1] | Kd of Tag7–TNFR1 peptide complex compared with Kd of Tag7–sTNFR1 complex (Tag7) | apoptotic cytotoxic activity of TNF in the presence of peptide [2] | necroptotic cytotoxic activity of TNF in the presence of peptide [2] | cytotoxic activity (L929 cells [3]) | killing of tumor cells [4] | inhibition of tumor growth / metastasis (tumor) | Kd (sTNFR1) | cytotoxic activity (L929 cells [5]) |
| --- | --- | --- | --- | --- | --- | --- | --- | --- | --- | --- |
| CC(C)C[C@H](NC(=O)[C@H](CS)NC(=O)[C@H](Cc1c[nH]cn1)NC(=O)[C@H](CCCNC(=N)N)NC(=O)[C@H](CC(C)C)NC(=O)[C@H](Cc1c[nH]cn1)NC(=O)[C@@H](N)CC(N)=O)C(=O)N[C@@H](CO)C(=O)N[C@@H](CS)C(=O)N[C@@H](CO)C(=O)N[C@@H](CCCCN)C(=O)N[C@@H](CS)C(=O)O [TNFR1 peptide] (H-NHLRHCLSCSKC-OH) | completely lose both apoptotic and necroptotic activity | completely lose both apoptotic and necroptotic activity | approximately 10 times lower | completely lose both apoptotic and necroptotic activity | completely lose both apoptotic and necroptotic activity |  |  |  |  |  |
| NPQAEGQLQWLNRRAN [TNFL peptide] | Both apoptosis (3 h) and necroptosis (20 h) were inhibited | Both apoptosis (3 h) and necroptosis (20 h) were inhibited |  | Both apoptosis (3 h) and necroptosis (20 h) were inhibited | Both apoptosis (3 h) and necroptosis (20 h) were inhibited | no cytotoxic effect |  |  |  |  |
| TNF peptide (aa. 150–170): TNF peptide (aa. 150–170), capable of killing tumor cells and inhibiting tumor growth (VLLTHTISRIAVSYQTKVNLL; UniProt P01375 150-170, looked up, fragment) |  |  |  |  |  |  | capable of killing tumor cells | inhibiting tumor growth |  |  |
| Tag7: recombinant human Tag7, innate immunity protein, TNFR1 ligand |  |  |  |  |  |  |  |  | 0.0422 µM |  |
| YVLLTH [TNFS peptide] | does not inhibit apoptosis nor necroptosis | does not inhibit apoptosis nor necroptosis |  | does not inhibit apoptosis nor necroptosis | does not inhibit apoptosis nor necroptosis |  |  |  |  | no cytotoxic effect |
